Results published in ChEMBL document CHEMBL5104172, “Design, synthesis, and antibacterial activity of derivatives of Tryptophanyl-tRNA synthetase inhibitor indolmycin” (Eur J Med Chem, 2022).
≈ marks a conversion by molar mass, not a printed value.

Experiments:
Assay type in all cases: functional
Enterococcus faecium [1] = experiment: Antibacterial activity against Enterococcus faecium EFM17-2 measured by liquid dilution method
[2] = system: Staphylococcus epidermidis; experiment: Antibacterial activity against methicillin-resistant Staphylococcus epidermidis MRSE17-3 measured by liquid dilution method
[3] = system: Staphylococcus epidermidis; experiment: Antibacterial activity against methicillin-resistant Staphylococcus epidermidis MRSE17-1 measured by liquid dilution method
Staphylococcus aureus [4] = experiment: Antibacterial activity against methicillin-resistant Staphylococcus aureus MRSA17-5 measured by liquid dilution method
[5] = system: Staphylococcus epidermidis; experiment: Antibacterial activity against methicillin-resistant Staphylococcus epidermidis MRSE17-6 measured by liquid dilution method
Staphylococcus aureus [6] = experiment: Antibacterial activity against methicillin-sensitive Staphylococcus aureus MSSA17-3 measured by liquid dilution method
[7] = system: Staphylococcus epidermidis; experiment: Antibacterial activity against methicillin-sensitive Staphylococcus epidermidis MSSE17-2 measured by liquid dilution method
Staphylococcus aureus [8] = experiment: Antibacterial activity against Staphylococcus aureus ATCC 29213 measured by liquid dilution method
Staphylococcus aureus [9] = experiment: Antibacterial activity against methicillin-resistant Staphylococcus aureus MRSA17-3 measured by liquid dilution method
Enterococcus faecium [10] = experiment: Antibacterial activity against Enterococcus faecium EFM17-1 measured by liquid dilution method
Staphylococcus aureus [11] = experiment: Antibacterial activity against methicillin-resistant Staphylococcus aureus ATCC 43300 measured by liquid dilution method
Staphylococcus aureus [12] = experiment: Antibacterial activity against methicillin-sensitive Staphylococcus aureus MSSA17-2 measured by liquid dilution method
[13] = system: Staphylococcus epidermidis; experiment: Antibacterial activity against methicillin-sensitive Staphylococcus epidermidis MSSE17-1 measured by liquid dilution method
[14] = system: Staphylococcus epidermidis; experiment: Antibacterial activity against methicillin-resistant Staphylococcus epidermidis MRSE17-4 measured by liquid dilution method
[15] = system: Staphylococcus epidermidis; experiment: Antibacterial activity against methicillin-resistant Staphylococcus epidermidis MRSE17-2 measured by liquid dilution method
[16] = system: Staphylococcus epidermidis; experiment: Antibacterial activity against methicillin-sensitive Staphylococcus epidermidis MSSE17-3 measured by liquid dilution method
Staphylococcus aureus [17] = experiment: Antibacterial activity against vancomycin-intermediate Staphylococcus aureus ATCC 700699 measured by liquid dilution method
Staphylococcus aureus [18] = experiment: Antibacterial activity against methicillin-resistant Staphylococcus aureus MRSA17-2 measured by liquid dilution method
Staphylococcus aureus [19] = experiment: Antibacterial activity against methicillin-resistant Staphylococcus aureus MRSA17-1 measured by liquid dilution method
Staphylococcus aureus [20] = experiment: Antibacterial activity against methicillin-sensitive Staphylococcus aureus MSSA17-1 measured by liquid dilution method
Enterococcus faecalis [21] = experiment: Antibacterial activity against Enterococcus faecalis EFA17-1 measured by liquid dilution method
Staphylococcus aureus [22] = experiment: Antibacterial activity against methicillin-resistant Staphylococcus aureus ATCC 33591 measured by liquid dilution method
Enterococcus faecalis [23] = experiment: Antibacterial activity against Enterococcus faecalis ATCC 29212 measured by liquid dilution method
Staphylococcus aureus [24] = experiment: Antibacterial activity against vancomycin-intermediate Staphylococcus aureus ATCC 700788 measured by liquid dilution method
Staphylococcus aureus [25] = experiment: Antibacterial activity against methicillin-resistant Staphylococcus aureus MRSA17-6 measured by liquid dilution method
Escherichia coli = experiment: Antibacterial activity against Escherichia coli ATCC 25922 measured by liquid dilution method
Staphylococcus aureus [26] = experiment: Antibacterial activity against methicillin-resistant Staphylococcus aureus NRS384 measured by liquid dilution method

SMILES	MIC (Enterococcus faecium [1]) [µg/mL]	MIC [2] [µg/mL]	MIC [3] [µg/mL]	MIC (Staphylococcus aureus [4]) [µg/mL]	MIC [5] [µg/mL]	MIC (Staphylococcus aureus [6]) [µg/mL]	MIC [7] [µg/mL]	MIC (Staphylococcus aureus [8]) [µg/mL]	MIC (Staphylococcus aureus [9]) [µg/mL]	MIC (Enterococcus faecium [10]) [µg/mL]	MIC (Staphylococcus aureus [11]) [µg/mL]	MIC (Staphylococcus aureus [12]) [µg/mL]	MIC [13] [µg/mL]	MIC [14] [µg/mL]	MIC [15] [µg/mL]	MIC [16] [µg/mL]	MIC (Staphylococcus aureus [17]) [µg/mL]	MIC (Staphylococcus aureus [18]) [µg/mL]	MIC (Staphylococcus aureus [19]) [µg/mL]	MIC (Staphylococcus aureus [20]) [µg/mL]	also measured
CNC1=NC(=O)[C@@H]([C@@H](C)c2c[nH]c3cccc(F)c23)O1	> 128	> 128	> 128	> 128	> 128	> 128	> 128	> 128	> 128	> 128	> 128	> 128	> 128	> 128	> 128	> 128	> 128	> 128	> 128	> 128	MIC (Enterococcus faecalis [21]): > 128 µg/mL; MIC (Staphylococcus aureus [22]): > 128 µg/mL; MIC (Enterococcus faecalis [23]): > 128 µg/mL; MIC (Staphylococcus aureus [24]): > 128 µg/mL; MIC (Staphylococcus aureus [25]): > 128 µg/mL
CNC1=NC(=O)[C@@H]([C@@H](C)c2c[nH]c3ccccc23)O1	> 128	> 128	> 128	> 128	> 128	> 128	> 128	> 128	> 128	> 128	> 128	> 128	> 128	> 128	> 128	> 128	> 128	> 128	> 128	> 128	MIC (Enterococcus faecalis [21]): > 128 µg/mL; MIC (Staphylococcus aureus [22]): > 128 µg/mL; MIC (Enterococcus faecalis [23]): > 128 µg/mL; MIC (Staphylococcus aureus [24]): > 128 µg/mL; MIC (Staphylococcus aureus [25]): > 128 µg/mL
CNC1=NC(=O)[C@H]([C@H](C)c2c[nH]c3c(F)cccc23)O1	4 (≈ 14.5 µM)	0.5 (≈ 1.82 µM)	0.5 (≈ 1.82 µM)	1 (≈ 3.63 µM)	0.5 (≈ 1.82 µM)	0.5 (≈ 1.82 µM)	4 (≈ 14.5 µM)	8 (≈ 29.1 µM)	1 (≈ 3.63 µM)	2 (≈ 7.27 µM)	4 (≈ 14.5 µM)	0.5 (≈ 1.82 µM)	2 (≈ 7.27 µM)	0.5 (≈ 1.82 µM)	0.25 (≈ 0.908 µM)	4 (≈ 14.5 µM)	2 (≈ 7.27 µM)	0.5 (≈ 1.82 µM)	0.5 (≈ 1.82 µM)	1 (≈ 3.63 µM)	MIC (Enterococcus faecalis [21]): 2 µg/mL (≈ 7.27 µM); MIC (Staphylococcus aureus [22]): 8 µg/mL (≈ 29.1 µM); MIC (Enterococcus faecalis [23]): 2 µg/mL (≈ 7.27 µM); MIC (Staphylococcus aureus [24]): 4 µg/mL (≈ 14.5 µM); MIC (Staphylococcus aureus [25]): 1 µg/mL (≈ 3.63 µM)
CNC1=NC(=O)[C@@H]([C@@H](C)c2c[nH]c3c(F)cccc23)O1	> 128	> 128	4 (≈ 14.5 µM)	8 (≈ 29.1 µM)	2 (≈ 7.27 µM)	4 (≈ 14.5 µM)	2 (≈ 7.27 µM)	> 128	8 (≈ 29.1 µM)	> 128	> 128	4 (≈ 14.5 µM)	32 (≈ 116 µM)	> 128	1 (≈ 3.63 µM)	> 128	> 128	8 (≈ 29.1 µM)	8 (≈ 29.1 µM)	8 (≈ 29.1 µM)	MIC (Enterococcus faecalis [21]): > 128 µg/mL; MIC (Staphylococcus aureus [22]): > 128 µg/mL; MIC (Enterococcus faecalis [23]): > 128 µg/mL; MIC (Staphylococcus aureus [24]): > 128 µg/mL; MIC (Staphylococcus aureus [25]): 8 µg/mL (≈ 29.1 µM)
CNC1=NC(=O)C(C(C)c2c[nH]c3c(C)cccc23)O1 (racemic)	–	–	–	–	–	–	–	> 128	–	–	–	–	–	–	–	–	–	–	–	–	MIC (Escherichia coli): > 128 µg/mL; MIC (Staphylococcus aureus [26]): > 128 µg/mL
CNC1=NC(=O)C(C(C)c2c[nH]c3cccc(C)c23)O1 (racemic)	–	–	–	–	–	–	–	2 (≈ 7.37 µM)	–	–	–	–	–	–	–	–	–	–	–	–	MIC (Escherichia coli): 32 µg/mL (≈ 118 µM); MIC (Staphylococcus aureus [26]): > 128 µg/mL
CNC1=NC(=O)C(C(C)c2c[nH]c3cc(F)ccc23)O1 (racemic)	–	–	–	–	–	–	–	16 (≈ 58.1 µM)	–	–	–	–	–	–	–	–	–	–	–	–	MIC (Escherichia coli): 8 µg/mL (≈ 29.1 µM); MIC (Staphylococcus aureus [26]): 8 µg/mL (≈ 29.1 µM)
CNC1=NC(=O)[C@@H]([C@@H](C)c2c[nH]c3cccc(Cl)c23)O1	> 128	> 128	128 (≈ 439 µM)	64 (≈ 219 µM)	64 (≈ 219 µM)	64 (≈ 219 µM)	> 128	64 (≈ 219 µM)	64 (≈ 219 µM)	> 128	64 (≈ 219 µM)	64 (≈ 219 µM)	> 128	64 (≈ 219 µM)	128 (≈ 439 µM)	> 128	> 128	64 (≈ 219 µM)	64 (≈ 219 µM)	64 (≈ 219 µM)	MIC (Enterococcus faecalis [21]): > 128 µg/mL; MIC (Staphylococcus aureus [22]): 64 µg/mL (≈ 219 µM); MIC (Enterococcus faecalis [23]): > 128 µg/mL; MIC (Staphylococcus aureus [24]): 128 µg/mL (≈ 439 µM); MIC (Staphylococcus aureus [25]): 64 µg/mL (≈ 219 µM)
